Source: PubChem BioAssay (NCI)
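48-hour exposure; five concentrations; linearly interpolated endpoints. GI50: concentration for 50% inhibition of growth. TGI is the concentration that stops growth completely.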

Columns and labels:
Assay in all cases: NCI-60 cell line screen, 48 h; in the data active means GI50 below about 0.43 µM; inactive means the rest
[1] = system: OVCAR-4 ovarian
[2] = system: SW-620 colon
[3] = system: UO-31 renal
[4] = system: HCT-116 colon
[5] = system: MDA-MB-231 breast
[6] = system: NCI-H226 lung
[7] = system: BT-549 breast
[8] = system: IGROV1 ovarian
[9] = system: UACC-257 melanoma
[10] = system: NCI-H460 lung
[11] = system: SF-268 CNS
[12] = system: SF-539 CNS
[13] = system: ACHN renal
[14] = system: DU-145 prostate
[15] = system: A549 NSCLC
[16] = system: HCT-15 colon
[17] = system: SNB-75 CNS
[18] = system: PC-3 prostate
[19] = system: RXF 393 renal
[20] = system: OVCAR-5 ovarian
[21] = system: HCC-2998 colon
[22] = system: OVCAR-3 ovarian
[23] = system: HS 578T breast
[24] = system: SK-MEL-2 melanoma
[25] = system: NCI-H23 lung
[26] = system: TK-10 renal
[27] = system: EKVX NSCLC
[28] = system: SR leukemia
[29] = system: SN12C renal
[30] = system: A498 renal
[31] = system: 786-0 renal
[32] = system: SF-295 CNS
[33] = system: HOP-92 NSCLC
[34] = system: HOP-62 NSCLC
[35] = system: NCI/ADR-RES ovarian
[36] = system: MALME-3M melanoma
[37] = system: SNB-19 CNS
[38] = system: LOX IMVI melanoma
[39] = system: MCF7 breast
[40] = system: U251 CNS
[41] = system: UACC-62 melanoma
[42] = system: NCI-H522 lung
[43] = system: OVCAR-8 ovarian
[44] = system: T-47D breast
[45] = system: SK-OV-3 ovarian
[46] = system: CAKI-1 renal

O=S(=O)(NCCNc1nccc(-c2c(-c3ccc(F)c(O)c3)nc3sccn23)n1)c1ccc(Cl)cc1
10.4 µM: TGI [46]
22.7 µM: TGI [36]
9.31 µM: TGI [17]
14.2 µM: TGI [32]
4.7 µM: TGI [19]
13.3 µM: TGI [23]
18.4 µM: TGI [6]
21.5 µM: TGI [34]
14 µM: TGI [7]
16 µM: TGI [40]
34.6 µM: TGI [26]
13.6 µM: TGI [31]
36.7 µM: TGI [43]
14.9 µM: TGI [22]
18.6 µM: TGI [42]
> 50 µM: TGI [1] | TGI [2] | TGI [3] | TGI [4] | TGI [8] | TGI [9] | TGI [10] | TGI [13] | TGI [14] | TGI [15] | TGI [16] | TGI [18] | TGI [20] | TGI [21] | TGI [27] | TGI [28] | TGI [29] | TGI [38] | TGI [39]
15.9 µM: TGI [45]
8.28 µM: TGI [44]
17.5 µM: TGI [35]
24.1 µM: TGI [5]
13 µM: TGI [41]
7.99 µM: TGI [24]
12.2 µM: TGI [25]
11.7 µM: TGI [30]
11.3 µM: TGI [37]
13.4 µM: TGI [11]
inactive: GI50 [1] 2.79 µM | GI50 [2] > 50 µM | GI50 [3] 0.94 µM | GI50 [4] 1.54 µM | GI50 [5] 2.98 µM | GI50 [6] 1.8 µM | GI50 [7] 1.65 µM | GI50 [8] 1.45 µM | GI50 [9] 2.53 µM | GI50 [10] 1.93 µM | GI50 [11] 1.8 µM | GI50 [12] 5.09 µM | GI50 [13] 1.4 µM | GI50 [14] 2.9 µM | GI50 [15] 1.69 µM | GI50 [16] 1.67 µM | GI50 [17] 1.13 µM | GI50 [18] 1.14 µM | GI50 [19] 0.651 µM | GI50 [20] 7.31 µM | GI50 [21] 2.93 µM | GI50 [22] 2.56 µM | GI50 [23] 1.26 µM | GI50 [24] 1.64 µM | GI50 [25] 3.56 µM | GI50 [26] 5.16 µM | GI50 [27] 2.19 µM | GI50 [28] 1.87 µM | GI50 [29] 1.54 µM | GI50 [30] 1.63 µM | GI50 [31] 3.38 µM | GI50 [32] 2.35 µM | GI50 [33] 2.39 µM | GI50 [34] 6.17 µM | GI50 [35] 1.79 µM | GI50 [36] 1.69 µM | GI50 [37] 3.35 µM | GI50 [38] 1.78 µM | GI50 [39] 1.52 µM | GI50 [40] 3.81 µM | GI50 [41] 0.967 µM | GI50 [42] 2.08 µM | GI50 [43] 2.18 µM | GI50 [44] 1.08 µM | GI50 [45] 2.8 µM | GI50 [46] 1.99 µM
13.8 µM: TGI [33]
11.9 µM: TGI [12]
